Reference: patent US9133245B2, “Cyclic lactadherin peptide mimetics and their uses” (TRUSTEES OF BOSTON COLLEGE, priority 2011, dated 2015)
Entries after “also recorded” stand apart in the source; their conditions may differ. Non-standard residues stand in square brackets, D forms with d. No end group written: not given here. Bip = N[C@@H](Cc1ccc(-c2ccccc2)cc1)C(=O)O

How the values were obtained:
[1] = test system: phosphatidylserine (PS)-containing liposomes (PC/PS vesicles); assay: Liposome binding assay (Trp-to-dansyl FRET) with large unilamellar vesicles; design: key to Liposome binding assay: “Y” means PS-selective (or apoptotic cell-specific) binding is observed; N means no or insignificant membrane binding is observed; “Nonselective” refers to membrane binding independent on PS; conditions: for Liposome binding assay: dansyl FRET assay; for binding to lipid vesicles of either composition: vesicles with and without PS; for binding to PC/PS liposomes (sensitized dansyl emission at 520 nm): PC/PS vesicles; for PS-selective binding in the presence of cholesterol: cholesterol-containing liposomes with PS vs without PS
Procedure: The binding of cLac to lipid membrane can be analyzed by any method known it the art. For example, by the fluorescence assay (Trp-to-dansyl FRET) described herein. Basically, large unilamellar vesicles (100 nm in diameter) were prepared with phosphatidylcholine (PC) and varied percentages of PS. All vesicles contained 5% dansyl-labeled PE to serve as a reporting group. The peptide-vesicle binding was monitored by the fluorescence resonance energy transfer (FRET) from Trp to the dansyl group. Emission of sensitized dansyl is monitored at 520 nm and Trp emission is monitored near 350 nm. Membrane binding of cLac to the PC/PS vesicles produces a sensitized dansyl emission at 520 nm with a concurrent decrease of Trp emission near 350 nm.
The peptide-membrane binding was evaluated via a fluorescence assay: large unilamellar vesicles (100 nm in diameter) were prepared with PC and varied percentages of PS. All vesicles contained 5% dansyl-labeled PE to serve as a reporting group. The peptide-vesicle binding was monitored by the fluorescence resonance energy transfer (FRET) from Trp to the dansyl group.

[2] = test system: apoptotic HeLa and Jukat cells (STS or CPT treated); assay: Cell imaging of apoptotic cells by epifluorescence microscopy; assay type: cell-based, human; design: key to Cell imaging: “Y” means PS-selective (or apoptotic cell-specific) binding is observed; N means no or insignificant membrane binding is observed; “Nonselective” refers to membrane binding independent on PS; conditions: for Cell imaging: standard epifluorescence microscopy
Procedure: The fluorescent derivative was tested for its potential to stain apoptotic cells. Cultured HeLa and Jukat cells were treated with the potent apoptogen staurosporine (STS) or camptothecin (CPT) respectively to trigger apoptosis. The experimental conditions were optimized with the FITC-labeled annexin V and the membrane impermeable DNA intercalator propidium iodine (PI). The treatment with 0.1 μM STS or CPT for 4 hours gave a large population of early apoptotic cells (data not shown), which were stained with annexin, but not PI. This indicates increased presence of PS exposure on the outer membrane leaflet of the cells experiencing early apoptosis. […] As negative controls, both fluorescein alone as well as the FITC-labeled linear precursor of cLac were used to label the apoptotic cells and tested for fluorescence staining. […] This observation is consistent with the previous reports that annexin V preferentially binds to cells at the early stages of apoptosis. Since these early apoptotic cells hold their membrane integrity (PI negative), it is believed cLac2-Fl stained the cells by binding to their outer surfaces, presumably to PS.

PS = conditions: without cofactors; cited from earlier work

Molecule	Liposome binding assay [1]	also measured
WBipGHIQAGRGGGD (cyclo(W[Bip]GHIQAGRGGGD); SMILES CC[C@H](C)[C@@H]1NC(=O)[C@H](Cc2c[nH]cn2)NC(=O)CNC(=O)[C@H](Cc2ccc(-c3ccccc3)cc2)NC(=O)[C@H](Cc2c[nH]c3ccccc23)NC(=O)[C@H](CC(=O)O)NC(=O)CNC(=O)CNC(=O)CNC(=O)[C@H](CCCNC(=N)N)NC(=O)CNC(=O)[C@H](C)NC(=O)[C@H](CCC(N)=O)NC1=O) [cLac-A1]	Y	
WBipGHIQGARGGGD (cyclo(W[Bip]GHIQGARGGGD); SMILES CC[C@H](C)[C@@H]1NC(=O)[C@H](Cc2c[nH]cn2)NC(=O)CNC(=O)[C@H](Cc2ccc(-c3ccccc3)cc2)NC(=O)[C@H](Cc2c[nH]c3ccccc23)NC(=O)[C@H](CC(=O)O)NC(=O)CNC(=O)CNC(=O)CNC(=O)[C@H](CCCNC(=N)N)NC(=O)[C@H](C)NC(=O)CNC(=O)[C@H](CCC(N)=O)NC1=O) [cLac-A2]	Y	
WBipGHIQGGGRGGGD (cyclo(W[Bip]GHIQGGGRGGGD); SMILES CC[C@H](C)[C@@H]1NC(=O)[C@H](Cc2c[nH]cn2)NC(=O)CNC(=O)[C@H](Cc2ccc(-c3ccccc3)cc2)NC(=O)[C@H](Cc2c[nH]c3ccccc23)NC(=O)[C@H](CC(=O)O)NC(=O)CNC(=O)CNC(=O)CNC(=O)[C@H](CCCNC(=N)N)NC(=O)CNC(=O)CNC(=O)CNC(=O)[C@H](CCC(N)=O)NC1=O) [cLac-33G]	Y	
WBipGHIQGGRGGAD (cyclo(W[Bip]GHIQGGRGGAD); SMILES CC[C@H](C)[C@@H]1NC(=O)[C@H](Cc2c[nH]cn2)NC(=O)CNC(=O)[C@H](Cc2ccc(-c3ccccc3)cc2)NC(=O)[C@H](Cc2c[nH]c3ccccc23)NC(=O)[C@H](CC(=O)O)NC(=O)[C@H](C)NC(=O)CNC(=O)CNC(=O)[C@H](CCCNC(=N)N)NC(=O)CNC(=O)CNC(=O)[C@H](CCC(N)=O)NC1=O) [cLac-A5]	Y	
WBipGHIQGGRGGGGGD (cyclo(W[Bip]GHIQGGRGGGGGD); SMILES CC[C@H](C)[C@@H]1NC(=O)[C@H](Cc2c[nH]cn2)NC(=O)CNC(=O)[C@H](Cc2ccc(-c3ccccc3)cc2)NC(=O)[C@H](Cc2c[nH]c3ccccc23)NC(=O)[C@H](CC(=O)O)NC(=O)CNC(=O)CNC(=O)CNC(=O)CNC(=O)CNC(=O)[C@H](CCCNC(=N)N)NC(=O)CNC(=O)CNC(=O)[C@H](CCC(N)=O)NC1=O) [cLac-25G]	Y	
WBipGHIQGppGRGGAD [cLac-PPG-2]	Y	Cell imaging [2]: Y; binding to PC/PS liposomes (sensitized dansyl emission at 520 nm) ([1]; FRET): selective binding; PS-selective binding in the presence of cholesterol [1]: selective binding
cLac-1: first cyclic lactadherin mimetic with Trp and Phe as membrane insertion motif, SEQ. ID. NO. 38 (WFGHIQGGRGGGD; cyclic)	N	binding to lipid vesicles of either composition ([1]; FRET): no binding
cLac-22G: cLac variant with di-Gly in linker II, SEQ. ID. NO. 42 (WFGHIQGGRGGD; cyclic)	N	dansyl emission / membrane binding compared among linker-length variants ([1]; Trp-to-dansyl FRET, Gly number of linker II varied 2 to 5, or linker I varied): lowest
cLac-A4: alanine for glycine linker variant G11A, SEQ. ID. NO. 41 (WFGHIQGGRGAGD; cyclic)	N	
Lactadherin: 47 kDa glycoprotein, natural PS-binding protein (protein, UniProt Q08431 24-387, looked up) Lactadherin: LDICSKNPCHNGGLCEEISQEVRGDVFPSYTCTCLKGYAGNHCETKCVEPLGLENGNIANSQIAASSVRVTFLGLQHWVPELARLNRAGMVNAWTPSSNDDNPWIQVNLLRRMWVTGVVTQGASRLASHEYLKAFKVAYSLNGHEFDFIHDVNKKHKEFVGNWNKNAVHVNLFETPVEAQYVRLYPTSCHTACTLRFELLGCELNGCANPLGLKNNSIPDKQITASSSYKTWGLHLFSWNPSYARLDKQGNFNAWVAGSYGNDQWLQVDLGSSKEVTGIITQGARNFGSVQFVASYKVAYSNDSANWTEYQDPRTGSSKIFPGNWDNHSHKKNLFETPILARYVRILPVAWHNRIALRLELLGC		affinity of binding to PS (PS): nanomolar
FITC-labeled annexin V: naturally occurring 36 kDa PS-binding protein, FITC-labeled (protein, UniProt P08758 2-320, looked up, FITC label) Annexin A5: AQVLRGTVTDFPGFDERADAETLRKAMKGLGTDEESILTLLTSRSNAQRQEISAAFKTLFGRDLLDDLKSELTGKFEKLIVALMKPSRLYDAYELKHALKGAGTNEKVLTEIIASRTPEELRAIKQVYEEEYGSSLEDDVVGDTSGYYQRMLVVLLQANRDPDAGIDEAQVEQDAQALFQAGELKWGTDEEKFITIFGTRSVSHLRKVFDKYMTISGFQIEETIDRETSGNLEQLLLAVVKSIRSIPAYLAETLYYAMKGAGTDDHTLIRVMVSRSEIDLFNIRKEFRKNFATSLYSMIKGDTSGDYKKALLLLCGEDD		staining of apoptotic cells ([2]; 0.1 μM STS or CPT for 4 hours, early apoptotic cells): stained

Continued, in another order:

Liposome binding assay [1]	Molecule	also measured
Y	D-WBipGHIQGGRGGGD (cyclo([dW][Bip]GHIQGGRGGGD); SMILES CC[C@H](C)[C@@H]1NC(=O)[C@H](Cc2c[nH]cn2)NC(=O)CNC(=O)[C@H](Cc2ccc(-c3ccccc3)cc2)NC(=O)[C@@H](Cc2c[nH]c3ccccc23)NC(=O)[C@H](CC(=O)O)NC(=O)CNC(=O)CNC(=O)CNC(=O)[C@H](CCCNC(=N)N)NC(=O)CNC(=O)CNC(=O)[C@H](CCC(N)=O)NC1=O) [cLac-D-Trp]	
N	DWBipGHIQGGRGGG (DW[Bip]GHIQGGRGGG; not fully specified) [cLac-linear, ID; NO; 43]	Cell imaging [2]: N; binding to lipid vesicles of either composition ([1]; FRET): binds to neither type of vesicle
N	Lac-1: cLac variant peptide, SEQ. ID. NO. 35 (WGHIQGRGGGD)	
N	Lac-1R: cLac variant peptide, SEQ. ID. NO. 36 (GGGRGQIHGWD)	
N	Lac-2: cLac variant peptide, SEQ. ID. NO. 37 (WGHIQGGRGGGD)	
Nonselective	Lac-Tph: cLac variant peptide, SEQ. ID. NO. 39 (WFGHIQGGRGGGD)	
Y	WBipGHIQGGRGGGD (cyclo(W[Bip]GHIQGGRGGGD); SMILES CC[C@H](C)[C@@H]1NC(=O)[C@H](Cc2c[nH]cn2)NC(=O)CNC(=O)[C@H](Cc2ccc(-c3ccccc3)cc2)NC(=O)[C@H](Cc2c[nH]c3ccccc23)NC(=O)[C@H](CC(=O)O)NC(=O)CNC(=O)CNC(=O)CNC(=O)[C@H](CCCNC(=N)N)NC(=O)CNC(=O)CNC(=O)[C@H](CCC(N)=O)NC1=O) [cLac-2, biphenylalanine replaces Phe]	binding to PC-alone liposomes ([1]; FRET, PC-alone liposomes): no binding; binding to PC/PS liposomes (sensitized dansyl emission at 520 nm) ([1]; FRET): clearly elicits a sensitized dansyl emission; also recorded: only with PC/PS liposomes; binding to cholesterol-containing membranes without PS ([1]; cholesterol-containing PC liposomes): non-specific binding; PS-selective binding in the presence of cholesterol [1]: able to differentiate PS-containing vesicles from PS-absent vesicles; dansyl fluorescence of vesicles containing 20% PS relative to 5% PS ([1]; peptide at saturating concentration 50 μM): close to four-fold; Kd ([1]; titration with PC/PS vesicles, sensitized dansyl emission, read-out: apparent dissociation constant (Kd)): ~15 µM
Y	WBipGHIQGGRGGGGD (cyclo(W[Bip]GHIQGGRGGGGD); SMILES CC[C@H](C)[C@@H]1NC(=O)[C@H](Cc2c[nH]cn2)NC(=O)CNC(=O)[C@H](Cc2ccc(-c3ccccc3)cc2)NC(=O)[C@H](Cc2c[nH]c3ccccc23)NC(=O)[C@H](CC(=O)O)NC(=O)CNC(=O)CNC(=O)CNC(=O)CNC(=O)[C@H](CCCNC(=N)N)NC(=O)CNC(=O)CNC(=O)[C@H](CCC(N)=O)NC1=O) [cLac-24G]	
Y	WBipGHIQGRGGGD (cyclo(W[Bip]GHIQGRGGGD); SMILES CC[C@H](C)[C@@H]1NC(=O)[C@H](Cc2c[nH]cn2)NC(=O)CNC(=O)[C@H](Cc2ccc(-c3ccccc3)cc2)NC(=O)[C@H](Cc2c[nH]c3ccccc23)NC(=O)[C@H](CC(=O)O)NC(=O)CNC(=O)CNC(=O)CNC(=O)[C@H](CCCNC(=N)N)NC(=O)CNC(=O)[C@H](CCC(N)=O)NC1=O) [cLac-13G]	
Y	WBipGHppGQGGRGGGD [cLac-PPG-0]	Cell imaging [2]: Y; binding to PC/PS liposomes (sensitized dansyl emission at 520 nm) ([1]; FRET): selective binding; PS-selective binding in the presence of cholesterol [1]: selective binding
N	cLac-A3: alanine for glycine linker variant G10A, SEQ. ID. NO. 40 (WFGHIQGGRAGGD; cyclic)	
